Data taken from patent US7622475B2, “EP2 agonists” (Pfizer Inc, priority 2006, dated 2009).
pEC50: −log10 of the molar value.

How the values were obtained:
ciliary muscle = conditions: topical ocular QD for 1 year; treated and contralateral eyes; cited from earlier work
[1] = tested on: ocular hypertensive non-human primates; test: IOP change after topical application in ocular hypertensive non-human primates; format: in vivo; conditions: for Tmax: time point of maximum IOP reduction
Experimental: Tables 2 and 3 describe the intraocular pressure (IOP) changes that were seen following topical application of EP2 agonists in ocular hypertensive non-human primates. Typically, compounds in suitable formulations were dosed topically and IOP was measured using tonometry. Changes in IOP between vehicle treatment followed by treatment with EP2 compounds were assessed over time in the dosed hypertensive eye. ΔΔ Emax reflects the difference in IOP from EP2 compound-treated eye over that seen for vehicle-treated eye at the timepoint wherein maximum IOP reduction for compound was seen. The percent ΔΔ Emax was the percentage change in IOP reduction conferred by compound over that for vehicle (set at 100%). Tmax represents the time point at which maximum IOP reduction of compound was observed. […] NS represents not significant. Table 2 compares acids of EP2 compound while Table 3 compares IOP response seen with esters of certain acids. Esters provide better corneal penetration and improved drug exposure in the anterior chamber compared to acids and are therefore dosed at ⅕th the dose for acids […].

[2] = tested on: other murine EP receptors or DP, TP, FP or IP receptors; conditions: cited from earlier work
EP2 = EP2 (Homo sapiens, UniProt P43116); design: expressed in transfected cells; host or cells: COS cells; conditions: COS cells transfected with the human EP2 receptor; read-out: EC50 for the stimulation of cAMP; cited from earlier work
Sequence of EP2 (P43116 whole entry): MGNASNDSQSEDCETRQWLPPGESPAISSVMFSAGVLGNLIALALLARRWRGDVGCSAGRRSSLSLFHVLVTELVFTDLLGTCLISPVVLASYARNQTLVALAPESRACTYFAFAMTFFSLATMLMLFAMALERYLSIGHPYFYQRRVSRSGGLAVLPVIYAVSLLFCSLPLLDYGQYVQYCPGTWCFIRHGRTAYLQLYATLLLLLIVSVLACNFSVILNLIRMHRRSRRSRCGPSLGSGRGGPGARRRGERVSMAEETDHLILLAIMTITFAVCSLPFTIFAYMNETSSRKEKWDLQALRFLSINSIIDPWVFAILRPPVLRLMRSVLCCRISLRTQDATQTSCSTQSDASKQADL

[3] = target: recombinant murine EP2 receptor (Mus musculus, UniProt Q62053); conditions: fraction of the affinity of PGE2; cited from earlier work
Sequence of recombinant murine EP2 receptor (Q62053 whole entry): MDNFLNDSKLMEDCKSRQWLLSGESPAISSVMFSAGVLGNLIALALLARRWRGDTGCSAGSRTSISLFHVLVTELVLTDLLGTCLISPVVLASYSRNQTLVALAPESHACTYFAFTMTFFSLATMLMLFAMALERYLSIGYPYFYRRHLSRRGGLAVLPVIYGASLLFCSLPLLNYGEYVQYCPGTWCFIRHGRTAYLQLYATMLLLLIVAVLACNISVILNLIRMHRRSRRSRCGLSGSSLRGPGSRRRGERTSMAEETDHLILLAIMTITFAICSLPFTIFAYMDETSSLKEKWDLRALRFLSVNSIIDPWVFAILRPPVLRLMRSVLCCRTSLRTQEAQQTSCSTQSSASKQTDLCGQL

newborn piglets = conditions: brief hypoxia, in the presence of PG synthase inhibitors; cited from earlier work
[4] = tested on: murine astrocyte cultures; conditions: cited from earlier work
[5] = tested on: ocular hypertensive non-human primates; test: IOP change after topical application in ocular hypertensive non-human primates; format: in vivo; conditions: isopropylesters, OHT primates, NT eye

In the case of `CCCCCC(O)c1ccc(C2CCC(=O)C2CCCCCCC(=O)O)cc1` (stereo not drawn) [AH-13205], the “number of nerve bundles in ciliary muscle” value (ciliary muscle) is given as “doubling in the number of nerve bundles in ciliary muscle”.

In the case of `CCCC1([C@H](O)C/C=C/[C@H]2[C@H](O)CC(=O)[C@@H]2CCCCCCC(=O)OC)CCC1` (racemic) [Butaprost, (+/−)-15-Deoxy-16S-hydroxy-17-cyclobutyl PGE1], the change in vivo at 0.1 % ([1]; Primates, topical, acid EP2 agonists, Conc 0.1 %, topical, vs vehicle (set at 100%), read-out: ΔΔEmax (%)) was -18%, the “ΔΔEmax (mm Hg)” value ([1]; acid EP2 agonists, Conc 0.1 %, topical, dosed hypertensive eye vs vehicle) was −5.5 mm Hg and the “Tmax” value ([1]; acid EP2 agonists, Conc 0.1 %) was 5 h. For the same compound, the “binding to other prostanoid receptors” value [2] was “does not bind appreciably”, the pEC50 (EP2) was ~5.30 and the “affinity relative to PGE2” value [3] was “about 1/10”. For the same compound, the “electrophysiological changes (VEPs and ERGs)” value (newborn piglets) was “restoration of electrophysiological changes”.

For `CCCCC[C@H](O)/C=C/[C@H]1[C@H](O)CC(=O)[C@@H]1C/C=C\CCCC(=O)O` [PGE2, prostaglandin E2], the “synthesis and secretion of BDNF and NGF” value [4] is listed as “stimulate synthesis and secretion of brain-derived neurotrophic factor (BDNF) and nerve growth factor (NGF)”.

In the case of `CC(C)OC(=O)COc1cccc(CN(Cc2ccc(-n3cccn3)cc2)S(=O)(=O)c2cccnc2)c1` [drawing 61], the “ΔΔEmax (mmHg)” value ([1]; isopropylesters, OHT primates, OHT eye, 0.1 mg/ml topical) was −14 mmHg, the “Tmax” value ([1]; isopropylesters, OHT primates) was 6 h and the “ΔΔEmax (mmHg)” value [5] was −7.5 mmHg.
